Consider 2 molecules from patent EP0681475B1 (priority 1993, dated 1994).

Data set [1] has as its system Vascular smooth muscle cells (BO54). The data set is described as follows: Scratch-migration assay. It counts as cell-based, baboon. The following applies: 0.1 µg/ml. As for the experimental part: Scratch assays to determine the extent of smooth muscle cell migration inhibition by cytochalasin B were performed in accordance with the following protocol: Vascular smooth muscle cells (BO54) were derived from explants of baboon aortic smooth muscle, as described in Example 2. The cells were grown in flat bottom, six well tissue culture plates, which hold about 5 ml of medium. The vascular smooth muscle cells were plated at 200,000 cells/well and placed at 37°C in a humidified 5% CO2 incubator for 18 hours. The wells were then scratched with a sterile portion of a single edge razor blade that was held by clamp or pliers and was brought aseptically into contact with the bottom of the well at a 90° angle.The cells from a small area along the scratch were removed by a sterile cotton tipped applicator while the blade was in contact with the bottom of the well.
After incubation, the presence of cells in the "scratched" area is indicative of cell migration across the scratch line.
Briefly, a stock solution of cytochalasin B (Sigma Chemical Co.) in dimethyl sulfoxide (DMSO) at 1 mg/ml was prepared. Test dilutions of cytochalasin B or control medium were added. […]
The migration results are expressed as "Grade in the Cleared Area of the Well / Grade in an Undisturbed Region of the Well." The toxicity values represent a grade for all cells in each well.

Data set [2] relates to vascular smooth muscle cells. The format is in vivo, pig.
In the next data set the test system is pig femoral arteries. The following applies: in vivo.
For data set [3], the system named is Vascular smooth muscle cells. The data set is described as follows: In vitro recovery of migration after clearance of the agent. As to conditions: cells regenerate enough polymerized actin. It counts as cell-based.
The subject of data set [4] is Vascular smooth muscle cells.
The subject of data set [5] is Vascular smooth muscle (BO54) cells. The format is cell-based, baboon.
For data set [6] the test system is unchanged. The format is cell-based, baboon. The source holds these as a separate data set.

Like-named read-outs stand apart in the source and are kept apart here.

Take cytochalasin B: the “migration grade following removal of the therapeutic agent” value in data set [1] (even after 10 days of continuous exposure) was “+3 to +4”. For the same molecule, in data set [1] (exposure), the “migration grade into the cleared area adjacent to the scratch” value is “+1 to +2”. The BRDU labeling grade in data set [2] (24 hours following balloon trauma, pretrauma baseline grade 1) is reported as 1 (1 = ≤ 1/high power field(HPF)). Also, the “effect on luminal area in dose response study” value with pig femoral arteries is “significant threshold effect”. For the same molecule, in the data set with pig femoral arteries, the “incidence of mural microthrombi” value was “decreased”. Also, the “lumen area in the test region compared to the normal control segment of the same artery” value with pig femoral arteries is reported as “approximately two times as large”. In the data set on pig femoral arteries, the “luminal area compared to arteries treated with other test agents or controls” value was “larger luminal area”. For the same molecule, the “time to resume migration after cells clear the agent” value in data set [3] was at most 24 h. Besides, the Morphological cytotoxicity grade worked out at 0 in data set [4] (0.01ug, Continuous 24 hrs (first listing, 24 hr pulse series)); 0 in data set [4] (0.01ug, continuous 24 hrs (second listing, long term continuous series)); 1 in data set [4] (0.1 ug, Continuous 24 hrs (first listing, 24 hr pulse series)); 0 in data set [4] (0.1 ug, continuous 24 hrs (second listing, long term continuous series)); 3 in data set [4] (1 ug, Continuous 24 hrs (first listing, 24 hr pulse series)); 3 in data set [4] (1 ug, continuous 24 hrs (second listing, long term continuous series)). Besides, in data set [4] (1 µg/ml, anti-migration/contraction effective dose, 1 = minimal), the cytotoxicity grade is reported as 1.

Take `CN[C@@H]1C[C@H]2O[C@@](C)([C@@H]1OC)n1c3ccccc3c3c4c(c5c6ccccc6n2c5c31)C(=O)NC4` [staurosporin]: the “minimum effective dose (MED)” value in data set [5] and in data set [6] was 1 ng/mL throughout. The BRDU labeling grade in data set [2] (pig, in vivo) is given as 1 (key: 1 = ≤ 1/high power field(HPF); 2 = 2 to 5/HPF; 3 = > 5 to ≤ 10/HPF; 4 = > 10/HPF).
